Read-outs that look alike come from different tables or passages of the source. Bounds are passed on as bounds.

This experiment has as its target T1, full-length SARM1 (FL-SARM1) (Homo sapiens, UniProt Q6SZW1).
T1 sequence (Q6SZW1 28-724): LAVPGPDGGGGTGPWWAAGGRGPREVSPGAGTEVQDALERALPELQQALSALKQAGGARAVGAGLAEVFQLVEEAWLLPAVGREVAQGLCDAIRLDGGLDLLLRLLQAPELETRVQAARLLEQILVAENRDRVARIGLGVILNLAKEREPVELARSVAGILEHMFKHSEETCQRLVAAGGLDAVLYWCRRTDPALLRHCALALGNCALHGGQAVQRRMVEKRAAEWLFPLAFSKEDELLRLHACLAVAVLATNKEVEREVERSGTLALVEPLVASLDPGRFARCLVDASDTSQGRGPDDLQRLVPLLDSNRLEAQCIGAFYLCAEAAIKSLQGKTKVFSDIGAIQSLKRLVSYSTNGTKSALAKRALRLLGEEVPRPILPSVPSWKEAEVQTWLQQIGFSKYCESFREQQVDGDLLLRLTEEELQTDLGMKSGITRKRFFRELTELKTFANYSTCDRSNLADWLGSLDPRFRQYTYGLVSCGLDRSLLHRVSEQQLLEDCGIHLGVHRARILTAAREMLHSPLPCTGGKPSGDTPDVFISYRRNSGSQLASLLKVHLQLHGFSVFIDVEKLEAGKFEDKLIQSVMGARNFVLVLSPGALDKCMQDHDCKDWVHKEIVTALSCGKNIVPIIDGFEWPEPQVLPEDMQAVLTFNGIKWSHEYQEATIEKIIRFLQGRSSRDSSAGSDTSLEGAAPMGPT
Nature of the experiment: FL-SARM1 cellular lysate assay (NAD/NADH-Glo detection of remaining NAD+, NMN-activated).

Setting [1] is: Activity (μM) (IC50), 11 point curve.
The mark [2] stands for this setting: read-out: Activity (IC50 class), 11 point curve.
[3] abbreviates: Activity (IC50 class), 11 point curve.

The IC50 is the midpoint of a concentration-inhibition curve. Consider `Cc1ccc(NC(=O)C2CC3CC[C@H]2C3)cc1-c1ccccn1` (single isomer, unassigned) [Example 139, cis-N-(4-methyl-3-pyridin-2-ylphenyl)bicyclo[2.2.1]heptane-2-carboxamide], for which the IC50 is 0.2 µM under setting [1] and 0.0001 to 1 µM under setting [2].

Take `Cc1ccc(NC(=O)C2CC3CC[C@@H]2C3)cc1-c1ccccn1` (single isomer, unassigned) [Example 140]: the IC50 by setting is: under setting [1], 0.9 µM; under setting [2], 0.0001 to 1 µM.

`CCOC(C)[C@@]12CC(C[C@@H](C)C1)N2C(=O)Nc1ccc(C)c(-c2ncc(F)cn2)c1` (single isomer, unassigned) [Example 186]: the IC50 is 0.2 µM under setting [1] and 0.0001 to 1 µM under setting [2].

On to `CCOC(C)[C@@]12CC(C[C@@H](C)C1)N2C(=O)Nc1ccc(C)c(-c2ncc(F)cn2)c1` (single isomer, unassigned) [Example 187, cis-1-(1-ethoxyethyl)-N-(3-(5-fluoropyrimidin-2-yl)-4-methylphenyl)-3-methyl-6-azabicyclo[3.1.1]heptane-6-carboxamide], for which the half-maximal inhibitory concentration (IC50) was 0.2 µM under setting [1] and 0.0001 to 1 µM under setting [2].

For the molecule `CCOC(C)[C@@]12CC(C[C@@H](C)C1)N2C(=O)Nc1ccc(C)c(-c2ncc(F)cn2)c1` (single isomer, unassigned) [Example 188, cis-1-(1-ethoxyethyl)-N-(3-(5-fluoropyrimidin-2-yl)-4-methylphenyl)-3-methyl-6-azabicyclo[3.1.1]heptane-6-carboxamide], the IC50 is 0.003 µM under setting [1] and 0.0001 to 1 µM under setting [2].

For the molecule `CCOC(C)[C@@]12CC(C[C@@H](C)C1)N2C(=O)Nc1ccc(C)c(-c2ncc(F)cn2)c1` (single isomer, unassigned) [Example 189, cis-1-(1-ethoxyethyl)-N-(3-(5-fluoropyrimidin-2-yl)-4-methylphenyl)-3-methyl-6-azabicyclo[3.1.1]heptane-6-carboxamide], the IC50 reads like this: under setting [3], 1 to 10 µM; under setting [1], 1.9 µM.

Regarding `COC(C)[C@@]12CC(C[C@@H](C)C1)N2C(=O)Nc1ccc(C)c(-c2ncc(F)cn2)c1` (single isomer, unassigned) [Example 191, cis-N-(3-(5-fluoropyrimidin-2-yl)-4-methylphenyl)-1-(1-methoxyethyl)-3-methyl-6-azabicyclo[3.1.1]heptane-6-carboxamide], the IC50 is 0.0009 µM under setting [1] and 0.0001 to 1 µM under setting [2].

Take `COC(C)[C@@]12CC(C[C@@H](C)C1)N2C(=O)Nc1ccc(C)c(-c2ncc(F)cn2)c1` (single isomer, unassigned) [Example 192, cis-N-(3-(5-fluoropyrimidin-2-yl)-4-methylphenyl)-1-(−1-methoxyethyl)-3-methyl-6-azabicyclo[3.1.1]heptane-6-carboxamide]: the IC50 under setting [3] lay in the range of 1 to 10 µM and the midpoint of inhibition under setting [1], the IC50, lay at 1 µM.

On to `Cc1ccc(NC(=O)N2C3CC(C)CC2(C(C)O)C3)cc1-c1ncc(F)cn1` (single isomer, unassigned) [Example 193, cis-N-(3-(5-fluoropyrimidin-2-yl)-4-methylphenyl)-1-(1-hydroxyethyl)-3-methyl-6-azabicyclo[3.1.1]heptane-6-carboxamide], for which the IC50 is 0.1 µM under setting [1] and 0.0001 to 1 µM under setting [2].

`Cc1ccc(NC(=O)N2C3CC(C)CC2(C(C)O)C3)cc1-c1ncc(F)cn1` (single isomer, unassigned) [Example 194, cis-N-(3-(5-fluoropyrimidin-2-yl)-4-methylphenyl)-1-(1-hydroxyethyl)-3-methyl-6-azabicyclo[3.1.1]heptane-6-carboxamide]: inhibition under setting [1] was half-maximal at 0.01 µM (IC50) and the IC50 under setting [2] was in the range of 0.0001 to 1 µM.

As for `Cc1ccc(NC(=O)N2C3CCC2[C@@H](C)C3)cc1-c1ncc(F)cn1` (single isomer, unassigned) [Example 195, cis-N-(3-(5-fluoropyrimidin-2-yl)-4-methylphenyl)-2-methyl-7-azabicyclo[2.2.1]heptane-7-carboxamide], the IC50 by setting is: under setting [1], 0.3 µM; under setting [2], 0.0001 to 1 µM.

Consider `Cc1ccc(NC(=O)N2C3CCC2[C@@H](C)C3)cc1-c1ncc(F)cn1` (single isomer, unassigned) [Example 196, cis-N-(3-(5-fluoropyrimidin-2-yl)-4-methylphenyl)-2-methyl-7-azabicyclo[2.2.1]heptane-7-carboxamide], for which the IC50 is 0.8 µM under setting [1] and 0.0001 to 1 µM under setting [2].

On to `Cc1ccc(NC(=O)N2C3CCC2[C@H](C)C3)cc1-c1ncc(F)cn1` (single isomer, unassigned) [Example 197, trans-N-[3-(5-fluoropyrimidin-2-yl)-4-methylphenyl]-2-methyl-7-azabicyclo[2.2.1]heptane-7-carboxamide], for which the IC50 under setting [1] worked out at 0.4 µM and the IC50 under setting [2] was 0.0001 to 1 µM.

Consider `Cc1ccc(NC(=O)N2C3CCC2[C@H](C)C3)cc1-c1ncc(F)cn1` (single isomer, unassigned) [Example 198, trans-N-[3-(5-fluoropyrimidin-2-yl)-4-methylphenyl]-2-methyl-7-azabicyclo[2.2.1]heptane-7-carboxamide], for which the IC50 is 0.3 µM under setting [1] and 0.0001 to 1 µM under setting [2].

Consider `COCC12CC(C)CC(C1)N2C(=O)Nc1cc(-c2ncccn2)c(C)cc1F` (single isomer, unassigned) [Example 199, trans-N-(2-fluoro-4-methyl-5-pyrimidin-2-ylphenyl)-1-(methoxymethyl)-3-methyl-6-azabicyclo[3.1.1]heptane-6-carboxamide], for which the IC50 is, setting by setting: under setting [3], 1 to 10 µM; under setting [1], 4.3 µM.

Consider `COCC12CC(C)CC(C1)N2C(=O)Nc1cc(-c2ncccn2)c(C)cc1F` (single isomer, unassigned) [Example 200, trans-N-(2-fluoro-4-methyl-5-pyrimidin-2-ylphenyl)-1-(methoxymethyl)-3-methyl-6-azabicyclo[3.1.1]heptane-6-carboxamide], for which the IC50 was 0.1 µM under setting [1] and 0.0001 to 1 µM under setting [2].

Turning to `Cc1cc(F)c(NC(=O)N2CC3CC2c2ccccc23)cc1-c1cccnn1` (single isomer, unassigned) [Example 201, N-(2-fluoro-4-methyl-5-pyridazin-3-ylphenyl)-9-azatricyclo[6.2.1.02,7]undeca-2(7),3,5-triene-9-carboxamide], the IC50 is, setting by setting: under setting [3], 1 to 10 µM; under setting [1], 2 µM.

As to `Cc1cc(F)c(NC(=O)N2CC3CC2c2ccccc23)cc1-c1cccnn1` (single isomer, unassigned) [Example 202, N-(2-fluoro-4-methyl-5-pyridazin-3-ylphenyl)-9-azatricyclo[6.2.1.02,7]undeca-2(7),3,5-triene-9-carboxamide], the IC50 runs as follows: under setting [1], 6.7 µM; under setting [2], 1 to 10 µM.

As for `Cc1ccc(NC(=O)C2[C@@H]3CC[C@@]2(c2ccnn2C)C3)cc1-c1ncc(F)cn1` (single isomer, unassigned) [Example 203, N-[3-(5-fluoropyrimidin-2-yl)-4-methylphenyl]-1-(2-methylpyrazol-3-yl)bicyclo[2.1.1]hexane-5-carboxamide], the IC50 is > 10 µM under setting [3] and > 50 µM under setting [1].

In the case of `Cc1ccc(NC(=O)C2[C@@H]3CC[C@@]2(c2ccnn2C)C3)cc1-c1ncc(F)cn1` (single isomer, unassigned) [Example 204, N-[3-(5-fluoropyrimidin-2-yl)-4-methylphenyl]-1-(2-methylpyrazol-3-yl)bicyclo[2.1.1]hexane-5-carboxamide], the IC50 was 0.5 µM under setting [1] and 0.0001 to 1 µM under setting [2].

Values taken from patent US20250171462A1 (NICO Therapeutics, Inc., priority 2022, published 2025).
